This note sets out measurements from ChEMBL document CHEMBL6153023, “Tubulin/HDAC dual-target inhibitors: Insights from design strategies, SARs, and therapeutic potential” (Eur J Med Chem, 2025).

Assay [1] deals with HCT-116. Briefly: Antiproliferative activity against human HCT-116 cells assessed as reduction in cell viability incubated for 48 hrs by MTT assay. It counts as functional, cell-based. The settings on record: HCT-116, 48 h.
The next assay relates to HL-60. Briefly: Antitumor activity against human HL-60 cells xenografted in nude mouse assessed as inhibition of tumor growth at 100 mg/kg, ip administered once daily for 7 days relative to control. It counts as functional. The settings on record: HL-60, 168 h, time 7 day, read-out: TGI. On the technique in general: A xenograft is tissue or cells of one species grown in another, often human tumour cells in immunodeficient mice.

Assay [2] deals with PC-3. Briefly: Antitumor activity against human PC-3 cells xenografted in nude mouse assessed as inhibition of tumor growth at 100 mg/kg, ip administered once daily for 7 days relative to control. In kind it is functional. The settings on record: PC-3, 168 h, time 7 day, read-out: TGI.
Assay [3] concerns A549. Briefly: Antiproliferative activity against human A549 cells assessed as reduction in cell viability incubated for 48 hrs by MTT assay. In kind it is functional, cell-based. The conditions noted are these: A549, 48 h. (Tetrazolium dyes change colour on reduction, which living cells bring about.)
Assay [4] has as its target T1, Protein deacetylase HDAC6 (Homo sapiens, UniProt Q9UBN7).
T1 sequence (Q9UBN7 whole entry): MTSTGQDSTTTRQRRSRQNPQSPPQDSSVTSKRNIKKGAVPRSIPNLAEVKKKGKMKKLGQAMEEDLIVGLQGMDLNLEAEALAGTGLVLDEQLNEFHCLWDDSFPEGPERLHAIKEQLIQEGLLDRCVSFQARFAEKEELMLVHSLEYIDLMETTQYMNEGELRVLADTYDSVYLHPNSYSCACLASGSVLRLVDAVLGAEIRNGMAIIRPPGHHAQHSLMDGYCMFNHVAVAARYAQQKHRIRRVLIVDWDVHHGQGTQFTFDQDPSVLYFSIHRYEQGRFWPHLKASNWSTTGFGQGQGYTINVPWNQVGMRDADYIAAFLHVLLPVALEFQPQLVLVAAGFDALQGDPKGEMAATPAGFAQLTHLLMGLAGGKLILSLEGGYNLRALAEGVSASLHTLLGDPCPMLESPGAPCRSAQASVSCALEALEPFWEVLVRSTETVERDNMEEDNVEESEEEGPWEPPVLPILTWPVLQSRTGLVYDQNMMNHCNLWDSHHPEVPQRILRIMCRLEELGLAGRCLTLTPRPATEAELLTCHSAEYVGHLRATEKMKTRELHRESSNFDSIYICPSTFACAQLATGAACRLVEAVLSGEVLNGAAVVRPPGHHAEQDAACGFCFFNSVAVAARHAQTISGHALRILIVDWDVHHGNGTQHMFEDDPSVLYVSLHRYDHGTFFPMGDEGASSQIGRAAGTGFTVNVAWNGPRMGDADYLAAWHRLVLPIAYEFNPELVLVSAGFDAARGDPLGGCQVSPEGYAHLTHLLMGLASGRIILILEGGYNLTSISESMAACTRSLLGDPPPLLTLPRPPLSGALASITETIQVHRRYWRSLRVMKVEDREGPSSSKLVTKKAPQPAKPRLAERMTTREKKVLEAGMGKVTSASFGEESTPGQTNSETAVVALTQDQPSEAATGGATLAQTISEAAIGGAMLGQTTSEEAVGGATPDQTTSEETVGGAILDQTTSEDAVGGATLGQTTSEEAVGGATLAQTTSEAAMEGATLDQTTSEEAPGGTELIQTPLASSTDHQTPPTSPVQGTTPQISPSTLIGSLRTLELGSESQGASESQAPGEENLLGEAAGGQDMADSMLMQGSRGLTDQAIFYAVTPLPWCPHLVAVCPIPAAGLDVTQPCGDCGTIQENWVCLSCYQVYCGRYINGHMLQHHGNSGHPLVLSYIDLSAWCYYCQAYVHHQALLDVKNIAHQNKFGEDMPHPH
Briefly: Inhibition of HDAC6 (unknown origin).

Assay [5] relates to PC-3. Briefly: Antiproliferative activity against human PC-3 cells assessed as reduction in cell viability incubated for 48 hrs by MTT assay. It counts as functional, cell-based. The conditions noted are these: PC-3, 48 h.
The subject of another assay is KYSE-450. Briefly: Antiproliferative activity against human KYSE-450 cells assessed as reduction in cell viability by MTT assay. It counts as functional, cell-based.
Assay [6] addresses Tubulin. Briefly: Inhibition of tubulin polymerization (unknown origin). It counts as protein-complex assay, Homo sapiens.
For assay [7], the target named is T2, Histone deacetylase 1 (Homo sapiens, UniProt Q13547). Briefly: Inhibition of HDAC1 (unknown origin).
T2 sequence (Q13547 whole entry): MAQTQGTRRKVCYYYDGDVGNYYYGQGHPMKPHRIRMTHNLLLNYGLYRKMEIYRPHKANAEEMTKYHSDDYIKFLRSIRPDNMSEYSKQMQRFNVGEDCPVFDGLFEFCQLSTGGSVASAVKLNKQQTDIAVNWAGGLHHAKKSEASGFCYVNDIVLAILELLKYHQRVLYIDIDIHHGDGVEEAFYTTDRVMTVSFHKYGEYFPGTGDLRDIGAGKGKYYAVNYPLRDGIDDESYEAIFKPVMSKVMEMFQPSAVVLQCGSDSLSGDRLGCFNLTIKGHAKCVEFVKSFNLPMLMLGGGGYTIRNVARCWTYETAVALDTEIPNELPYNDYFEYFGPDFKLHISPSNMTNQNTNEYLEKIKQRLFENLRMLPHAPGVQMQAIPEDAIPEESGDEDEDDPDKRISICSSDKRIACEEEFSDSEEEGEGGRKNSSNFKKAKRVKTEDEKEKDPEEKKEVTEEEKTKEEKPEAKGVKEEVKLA
The test system of assay [8] is HCT-116. Briefly: Antiproliferative activity against human HCT-116 cells assessed as reduction in cell viability by MTT assay. In kind it is functional, cell-based.
The next assay deals with MGC-803. Kind of assay: Antiproliferative activity against human MGC-803 cells assessed as reduction in cell viability by MTT assay. In kind it is functional, cell-based.
A short description of assay [9]: Inhibition of bovine brain tubulin polymerization measured after 20 mins by spectrophotometric analysis. More on the design: species or system Bos taurus.
The next assay concerns HepG2. Kind of assay: Antiproliferative activity against human HepG2 cells assessed as reduction in cell viability incubated for 72 hrs by MTT assay. It counts as functional, cell-based. The conditions noted are these: HepG2, 72 h.
In assay [10] the test system is MCF7. Briefly: Antiproliferative activity against human MCF7 cells assessed as reduction in cell viability incubated for 72 hrs by MTT assay. The conditions noted are these: MCF7, 72 h. It counts as functional, cell-based.
The next assay concerns A2780. Briefly: Antitumor activity against human A2780 cells xenografted in BALB/c nude mouse assessed as tumor growth inhibition at 25 mg/kg, ip administered once daily for 1 week relative to control. The settings on record: A2780, 168 h, time 1 weeks, read-out: TGI. In kind it is functional.
In assay [11] the test system is HCT-116. Kind of assay: Antitumor activity against human HCT-116 cells xenografted in BALB/c nude mouse assessed as tumor growth inhibition at 25 mg/kg, ip administered once daily for 1 week relative to control. It counts as functional. The settings on record: HCT-116, 168 h, time 1 weeks, read-out: TGI.
In assay [12] the test system is MCF7. Briefly: Antitumor activity against human MCF7 cells xenografted in BALB/c nude mouse assessed as tumor growth inhibition at 25 mg/kg, ip administered once daily for 1 week relative to control. The conditions noted are these: MCF7, 168 h, time 1 weeks, read-out: TGI. It counts as functional.
For assay [13], the target named is T3, Histone deacetylase 2 (Homo sapiens, UniProt Q92769). Kind of assay: Inhibition of human recombinant HDAC2 extracted from baculovirus infected Insect cells using Ac-Lys-Tyr-Lys (acetyl)-AMC as substrate incubated for 24 hrs by fluorescence analysis. Also on record: species or system Insect cell.
T3 sequence (Q92769 whole entry): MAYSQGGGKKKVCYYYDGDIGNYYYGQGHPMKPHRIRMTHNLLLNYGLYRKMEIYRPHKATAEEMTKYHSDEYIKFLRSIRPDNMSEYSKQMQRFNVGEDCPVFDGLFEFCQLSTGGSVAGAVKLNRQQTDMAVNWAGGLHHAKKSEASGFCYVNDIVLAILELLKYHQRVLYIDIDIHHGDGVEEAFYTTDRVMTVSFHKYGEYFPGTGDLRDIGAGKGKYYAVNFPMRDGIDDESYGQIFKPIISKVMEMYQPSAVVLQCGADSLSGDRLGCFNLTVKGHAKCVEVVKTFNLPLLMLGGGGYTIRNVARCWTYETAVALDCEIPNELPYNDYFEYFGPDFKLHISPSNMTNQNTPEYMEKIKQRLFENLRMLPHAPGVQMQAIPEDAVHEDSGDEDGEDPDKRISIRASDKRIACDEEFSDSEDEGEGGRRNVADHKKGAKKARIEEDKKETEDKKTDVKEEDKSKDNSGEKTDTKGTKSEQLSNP
For assay [14], the system named is A549. Briefly: Cytotoxicity against human A549 cells assessed as reduction in cell growth measured for 72 hrs by MTT assay. It counts as functional, cell-based. The conditions noted are these: A549, 72 h.
A further assay deals with Tubulin (Homo sapiens) (UniProt P68371+Q9H4B7+P0DPH7+P68366+Q13509+Q71U36+P04350+Q3ZCM7+P07437+P68363+Q9BQE3+Q6PEY2+Q13885+Q9BVA1+Q9BUF5). Briefly: Inhibition of tubulin polymerization (unknown origin) at 10 uM relative to control. In kind it is protein-complex assay.
Assay [15] concerns the target T1, Protein deacetylase HDAC6. Briefly: Inhibition of FLAG/His-tagged human recombinant HDAC6 extracted from baculovirus infected Sf9 cells […] by fluorescence based analysis.
In another assay the test system is UO-31. Kind of assay: Antiproliferative activity against human UO-31 cells assessed as reduction in cell viability by MTT assay. In kind it is functional, cell-based.
Assay [16] concerns the target T2, Histone deacetylase 1. Kind of assay: Inhibition of human recombinant FLAG/His-tagged HDAC1 using fluorogenic substrate by fluorescence microplate reader assay.
For another assay, the system named is T47D. Briefly: Antiproliferative activity against human T47D cells assessed as reduction in cell viability by MTT assay. It counts as functional, cell-based.
The target in assay [17] is Tubulin. Kind of assay: Inhibition of tubulin polymerization (unknown origin) by fluorescence based assay. In kind it is protein-complex assay, Homo sapiens.
Assay [18] concerns the target T1, Protein deacetylase HDAC6. Briefly: Inhibition of human recombinant HDAC6 using Boc-Lys(Ac)-AMC as substrate preincubated for 15 mins followed by substrate addition and measured after 60 mins by fluorescence based microplate reader analysis.
Assay [19] is filed under the species Homo sapiens. Kind of assay: Selectivity index, ratio of IC50 for inhibition of human recombinant HDAC2 to IC50 for inhibition of human recombinant HDAC6.
For assay [20], the species on record is Homo sapiens. Briefly: Selectivity index, ratio of IC50 for inhibition of human recombinant HDAC1 to IC50 for inhibition of human recombinant HDAC6.
The target of assay [21] is T3, Histone deacetylase 2. Briefly: Inhibition of human recombinant HDAC2 extracted from baculovirus infected Sf9 insect cells using Ac-Leu-Gly-Lys(Ac)-AMC as substrate preincubated for 30 mins followed by substrate addition measured after 1 hr by fluorescence based analysis.
In assay [22] the target is T2, Histone deacetylase 1. Briefly: Inhibition of human recombinant HDAC1 using Boc-Lys(Ac)-AMC or Boc-Lys(Tfa)-AMC as substrate incubated for 1 hr by fluorescence based analysis.
A further assay concerns 518A2. Briefly: Antiproliferative activity against human 518A2 cells assessed as reduction in cell viability incubated for 72 hrs by MTT assay. It counts as functional, cell-based. The settings on record: 518A2, 72 h.

Turning to `COc1ccc2c(C(=O)c3cc(OC)c(OC)c(OO)c3)cn(S(=O)(=O)c3cccc(/C=C/CC(=O)NO)c3)c2c1`, the IC50 in the assay with HCT-116 [1] amounted to 44 nM; in the assay with A549 [3], 73 nM; in assay [4], 276 nM; in the assay on PC-3 [5], 33 nM. The inhibition in vivo at 100 mg/kg with HL-60 was found to be 40.9%; in the assay with PC-3 [2], 31.1%.

With `COc1ccc(CN(C(=O)CC2CCC(C(=O)Nc3ccccc3N)CC2)c2cc(OC)c(OC)c(OC)c2)cc1O` (stereo not given), the half-maximal inhibitory concentration (IC50) was found to be 254 nM with KYSE-450; 3640 nM against Tubulin [6]; 525 nM on Histone deacetylase 1 [7]; 172 nM in the assay with HCT-116 [8]; 39 nM in the assay on MGC-803.

With `COc1cccc(C(=O)c2oc3cc(OC)c(C#CC(=O)NO)cc3c2C)c1`, in assay [9], half-maximal inhibition (IC50) required 420 nM.

For `COc1cc(/C=C/C(=O)c2ccc(NC(=O)c3ccccc3CN3C(=O)c4ccccc4C3=O)cc2)cc(OC)c1OC`, the IC50 at Tubulin [6] worked out at 2320 nM; in the assay on HepG2, 1620 nM; in the assay with MCF7 [10] it was 1880 nM.

For `COc1ccc(N(C)c2nc(C)nc3ccccc23)cc1OCCCC(=O)NO`, the inhibition in vivo at 25 mg/kg is 77.4% with A2780, 60.4% in the assay with HCT-116 [11] and 50.5% with MCF7 [12].

With `COc1cc([C@@H]2c3cc4c(cc3C[C@H]3COC(=O)[C@@H]32)OCO4)cc(OC)c1OC(=O)CC(=O)Nc1ccc(C(=O)Nc2ccccc2N)cc1`, the IC50 at Histone deacetylase 2 [13] came out at 1730 nM.

`COc1ccc(-c2cccc(-c3cc(OC)c(OC)c(OC)c3)n2)cc1CCC(=O)NO` displayed a 50% inhibitory concentration (IC50) on Tubulin [6] of 117 nM.

Turning to `COc1cc([C@@H]2c3cc4c(cc3C[C@H]3COC(=O)[C@@H]32)OCO4)cc(OC)c1OC(=O)CC(=O)NCc1ccc(C(=O)Nc2ccccc2N)cc1`, the IC50 in the assay on A549 [14] is 40 nM.

On to `COc1ccc(-c2cccc(-c3cc(OC)c(OC)c(OC)c3)n2)cc1O`, for which the inhibition against Tubulin (Homo sapiens) came to 32%.

As to `CNC(=O)CCCCOc1nc(-c2ccc(OC)cc2)cc(-c2cc(OC)c(OC)c(OC)c2)c1C#N`, the concentration for half-maximal inhibition (IC50) in assay [15] was determined as 84 nM; in the assay with UO-31, 3520 nM; on Histone deacetylase 1 [16], 73.2 nM; with T47D, 5500 nM; against Tubulin [17], 3520 nM.

Molecule `COc1ccc2c(C(=O)c3cc(OC)c(OC)c(OO)c3)c[nH]c2c1` yielded a half-maximal inhibitory concentration (IC50) against Tubulin [6] of 2800 nM.

Take `COc1ccc2c(C(=O)c3cc(OC)c(OC)c(OO)c3)cn(Cc3ccc(C(=O)NO)cc3)c2c1`: the half-inhibitory concentration (IC50) came to 65 nM in [18], 1410 nM at Histone deacetylase 2 [21] and 573 nM at Histone deacetylase 1 [22]. Further, the Ratio IC50 in the assay listed under Homo sapiens [19] was 21.8; in the assay listed under Homo sapiens [20], 8.89.

`COc1ccc2c(C)c(C(=O)c3cc(OC)c(OC)c(OC)c3)oc2c1` came in with a concentration for half-maximal inhibition (IC50) on Tubulin [6] of 620 nM.

Consider `COc1ccc(-c2ocnc2-c2cc(Br)c(OC)c(OC)c2)cc1OCCCC(=O)NO`, for which the IC50 in the assay on 518A2 is 710 nM.

The term IC50 denotes the concentration at which inhibition is half-maximal. In general, inhibition refers to how much of the control response was suppressed. A low value points to a response near the control.
